{"source": "ChEMBL document CHEMBL1135998", "about": "“Identification of orally active, potent, and selective 4-piperazinylquinazolines as antagonists of the platelet-derived growth factor receptor tyrosine kinase family” (J Med Chem, 2002)", "key": {"in vivo [1]": {"assay": "in vivo", "settings": "dog, po, 5 mg/kg"}, "in vivo [2]": {"assay": "in vivo", "settings": "simiiformes, po, 10 mg/kg"}, "in vivo [3]": {"assay": "in vivo", "settings": "rat, plasma, po, 30 mg/kg"}, "in vivo [4]": {"assay": "in vivo", "settings": "simiiformes, plasma, po, 10 mg/kg"}, "in vivo [5]": {"assay": "in vivo", "settings": "dog, po, 5 mg/kg", "remark": "listed apart in the source"}, "in vivo [6]": {"assay": "in vivo", "settings": "dog, po, 5 mg/kg", "remark": "listed apart in the source"}, "in vivo [7]": {"assay": "in vivo", "settings": "rat, po, 30 mg/kg"}, "in vivo [8]": {"assay": "in vivo", "settings": "primates, po, 10 mg/kg"}, "in vivo [9]": {"assay": "in vivo"}, "in vivo [10]": {"assay": "in vivo", "settings": "primates, po, 5 mg/kg"}, "in vivo [11]": {"assay": "in vivo", "settings": "rat, po, 5 mg/kg"}, "in vivo [12]": {"assay": "in vivo", "settings": "rat, po, 5 mg/kg", "remark": "listed apart in the source"}, "in vivo [13]": {"assay": "in vivo", "settings": "simiiformes, po, 5 mg/kg"}, "in vivo [14]": {"assay": "in vivo", "settings": "simiiformes, po, 5 mg/kg", "remark": "listed apart in the source"}, "in vivo [15]": {"assay": "in vivo", "settings": "primates, po, 5 mg/kg", "remark": "listed apart in the source"}, "in vivo [16]": {"assay": "in vivo", "settings": "dog, po, 7.5 mg/kg"}, "in vivo [17]": {"assay": "in vivo", "settings": "rat, po, 30 mg/kg", "remark": "listed apart in the source"}, "in vivo [18]": {"assay": "in vivo", "settings": "rat, po, 30 mg/kg", "remark": "listed apart in the source"}, "in vivo [19]": {"assay": "in vivo", "settings": "dog, po, 7.5 mg/kg", "remark": "listed apart in the source"}, "in vivo [20]": {"assay": "in vivo", "settings": "rat, po, 30 mg/kg", "remark": "listed apart in the source"}, "in vivo [21]": {"assay": "in vivo", "settings": "dog, po, 7.5 mg/kg", "remark": "listed apart in the source"}}, "data": [{"smiles": "COc1cc2c(N3CCN(C(=O)Nc4ccc(OC(C)C)cc4)CC3)ncnc2cc1OCCN1CCCCC1", "values": [{"measurement": "bioavailability", "setting": "in vivo [1]", "value": 13.5, "unit": "%"}, {"measurement": "Cmax", "setting": "in vivo [2]", "value": 386, "unit": "ng/mL"}, {"measurement": "AUC", "setting": "in vivo [3]", "value": 4410, "unit": "ng·h/mL"}, {"measurement": "AUC", "setting": "in vivo [4]", "value": 3080, "unit": "ng·h/mL"}, {"measurement": "Cmax", "setting": "in vivo [5]", "value": 43, "unit": "ng/mL"}, {"measurement": "AUC", "setting": "in vivo [6]", "value": 387, "unit": "ng·h/mL"}, {"measurement": "Cmax", "setting": "in vivo [7]", "value": 414, "unit": "ng/mL"}, {"measurement": "bioavailability", "setting": "in vivo [8]", "value": 38.8, "unit": "%"}]}, {"smiles": "COc1cc2c(N3CCN(C(=O)Nc4ccc(OC(C)C)cc4)CC3)ncnc2cc1OCCCN1CCOCC1", "values": [{"measurement": "bioavailability", "setting": "in vivo [1]", "value": 63.3, "unit": "%"}, {"measurement": "Cmax", "setting": "in vivo [9]", "value": 49.2, "unit": "ng/mL"}, {"measurement": "Cmax", "setting": "in vivo [5]", "value": 183, "unit": "ng/mL"}, {"measurement": "AUC", "setting": "in vivo [6]", "value": 1390, "unit": "ng·h/mL"}, {"measurement": "bioavailability", "setting": "in vivo [10]", "value": 18.9, "unit": "%"}, {"measurement": "AUC", "setting": "in vivo [11]", "value": 176, "unit": "ng·h/mL"}, {"measurement": "bioavailability", "setting": "in vivo [12]", "value": 20.8, "unit": "%"}, {"measurement": "AUC", "setting": "in vivo [13]", "value": 663, "unit": "ng·h/mL"}, {"measurement": "Cmax", "setting": "in vivo [14]", "value": 135, "unit": "ng/mL"}]}, {"smiles": "COc1cc2c(N3CCN(C(=O)Nc4ccc(OC(C)C)cc4)CC3)ncnc2cc1OCCCN1CCCCC1", "note": "[TANDUTINIB]", "values": [{"measurement": "Cmax", "setting": "in vivo [9]", "value": 317, "unit": "ng/mL"}, {"measurement": "bioavailability", "setting": "in vivo [15]", "value": 48.9, "unit": "%"}, {"measurement": "Cmax", "setting": "in vivo [16]", "value": 481, "unit": "ng/mL"}, {"measurement": "bioavailability", "setting": "in vivo [17]", "value": 23.8, "unit": "%"}, {"measurement": "AUC", "setting": "in vivo [13]", "value": 2920, "unit": "ng·h/mL"}, {"measurement": "AUC", "setting": "in vivo [18]", "value": 1700, "unit": "ng·h/mL"}, {"measurement": "AUC", "setting": "in vivo [19]", "value": 2690, "unit": "ng·h/mL"}, {"measurement": "Cmax", "setting": "in vivo [20]", "value": 256, "unit": "ng/mL"}, {"measurement": "bioavailability", "setting": "in vivo [21]", "value": 97.6, "unit": "%"}]}]}
